In the NIST ThermoML archive (doi:10.1021/je300873x):

Test: mn = molality of the nth substance listed, in mol/kg
Details: for surface tension liquid-gas: Pendant drop shape; for electrical conductivity: Liquid, Digital conductivity meter

CCCCCCCCCCCCCCCC[N+](C)(C)CCO.[Br-] [N-cetyl-hydroxyethyl-dimethyl ammonium bromide] + O
Details	electrical conductivity [S/m]	surface tension liquid-gas [mN/m]
298.15 K, m1 = 0.00016	–	61.83
298.15 K, m1 = 0.00033	–	53.61
298.15 K, m1 = 0.00049	–	45.49
298.15 K, m1 = 0.00059	–	41.63
298.15 K, m1 = 0.00069	–	39.31
298.15 K, m1 = 0.00074	–	38.39
298.15 K, m1 = 0.00075	0.0068	–
298.15 K, m1 = 0.00078	0.007	37.61
298.15 K, m1 = 0.00081	0.0072	–
298.15 K, m1 = 0.00083	–	37.58
298.15 K, m1 = 0.00084	0.0074	–
298.15 K, m1 = 0.00088	0.0076	37.3
298.15 K, m1 = 0.00092	0.0078	–
298.15 K, m1 = 0.00096	0.0079	–
298.15 K, m1 = 0.00098	–	37.24
298.15 K, m1 = 0.00101	0.008	–
298.15 K, m1 = 0.00106	0.0082	–
298.15 K, m1 = 0.00108	–	37.15
298.15 K, m1 = 0.00112	0.0084	–
298.15 K, m1 = 0.00118	–	37.12
298.15 K, m1 = 0.00119	0.0085	–
298.15 K, m1 = 0.00126	0.0087	–
298.15 K, m1 = 0.00135	0.0089	–
298.15 K, m1 = 0.00144	0.0091	–
298.15 K, m1 = 0.00156	0.0094	–
298.15 K, m1 = 0.00169	0.0097	–
298.15 K, m1 = 0.00184	0.0101	–
298.15 K, m1 = 0.00202	0.0105	–
303.15 K, m1 = 0.00075	0.0076	–
303.15 K, m1 = 0.00078	0.0078	–
303.15 K, m1 = 0.00081	0.0081	–
303.15 K, m1 = 0.00084	0.0083	–
303.15 K, m1 = 0.00088	0.0085	–
303.15 K, m1 = 0.00092	0.0088	–
303.15 K, m1 = 0.00096	0.009	–
303.15 K, m1 = 0.00101	0.0091	–
303.15 K, m1 = 0.00106	0.0093	–
303.15 K, m1 = 0.00112	0.0095	–
303.15 K, m1 = 0.00119	0.0097	–
303.15 K, m1 = 0.00126	0.0099	–
303.15 K, m1 = 0.00135	0.0101	–
303.15 K, m1 = 0.00144	0.0104	–
303.15 K, m1 = 0.00155	0.0107	–
303.15 K, m1 = 0.00168	0.0111	–
303.15 K, m1 = 0.00184	0.0114	–
303.15 K, m1 = 0.00202	0.0119	–
308.15 K, m1 = 0.00075	0.0083	–
308.15 K, m1 = 0.00078	0.0086	–
308.15 K, m1 = 0.00081	0.0089	–
308.15 K, m1 = 0.00084	0.0092	–
308.15 K, m1 = 0.00088	0.0095	–
308.15 K, m1 = 0.00092	0.0097	–
308.15 K, m1 = 0.00096	0.01	–
308.15 K, m1 = 0.00101	0.0102	–
308.15 K, m1 = 0.00106	0.0105	–
308.15 K, m1 = 0.00112	0.0107	–
308.15 K, m1 = 0.00119	0.0108	–
308.15 K, m1 = 0.00126	0.0111	–
308.15 K, m1 = 0.00134	0.0113	–
308.15 K, m1 = 0.00144	0.0117	–
308.15 K, m1 = 0.00155	0.012	–
308.15 K, m1 = 0.00168	0.0125	–
308.15 K, m1 = 0.00183	0.0129	–
308.15 K, m1 = 0.00202	0.0134	–
313.15 K, m1 = 0.00077	0.0094	–
313.15 K, m1 = 0.0008	0.0098	–
313.15 K, m1 = 0.00084	0.0101	–
313.15 K, m1 = 0.00087	0.0105	–
313.15 K, m1 = 0.00091	0.0108	–
313.15 K, m1 = 0.00096	0.0111	–
313.15 K, m1 = 0.00101	0.0114	–
313.15 K, m1 = 0.00106	0.0118	–
313.15 K, m1 = 0.00112	0.012	–
313.15 K, m1 = 0.00118	0.0123	–
313.15 K, m1 = 0.00126	0.0126	–
313.15 K, m1 = 0.00134	0.0129	–
313.15 K, m1 = 0.00144	0.0133	–
313.15 K, m1 = 0.00155	0.0137	–
313.15 K, m1 = 0.00168	0.0141	–
313.15 K, m1 = 0.00183	0.0147	–
313.15 K, m1 = 0.00201	0.0154	–
318.15 K, m1 = 0.00074	0.0101	–
318.15 K, m1 = 0.00077	0.0104	–
318.15 K, m1 = 0.0008	0.0109	–
318.15 K, m1 = 0.00084	0.0112	–
318.15 K, m1 = 0.00087	0.0116	–
318.15 K, m1 = 0.00091	0.0119	–
318.15 K, m1 = 0.00096	0.0124	–
318.15 K, m1 = 0.001	0.0128	–
318.15 K, m1 = 0.00106	0.0132	–
318.15 K, m1 = 0.00112	0.0137	–
318.15 K, m1 = 0.00118	0.014	–
318.15 K, m1 = 0.00126	0.0144	–
318.15 K, m1 = 0.00134	0.0148	–
318.15 K, m1 = 0.00143	0.0152	–
318.15 K, m1 = 0.00154	0.0158	–
318.15 K, m1 = 0.00167	0.0164	–
318.15 K, m1 = 0.00183	0.0169	–
318.15 K, m1 = 0.00201	0.0174	–
323.15 K, m1 = 0.00074	0.0107	–
323.15 K, m1 = 0.00077	0.0111	–
323.15 K, m1 = 0.0008	0.0116	–
323.15 K, m1 = 0.00083	0.012	–
323.15 K, m1 = 0.00087	0.0124	–
323.15 K, m1 = 0.00091	0.0129	–
323.15 K, m1 = 0.00095	0.0134	–
323.15 K, m1 = 0.001	0.014	–
323.15 K, m1 = 0.00105	0.0143	–
323.15 K, m1 = 0.00111	0.0151	–
323.15 K, m1 = 0.00118	0.0157	–
323.15 K, m1 = 0.00125	0.016	–
323.15 K, m1 = 0.00134	0.0166	–
323.15 K, m1 = 0.00143	0.0171	–
323.15 K, m1 = 0.00154	0.0176	–
323.15 K, m1 = 0.00167	0.0182	–
323.15 K, m1 = 0.00182	0.0189	–
323.15 K, m1 = 0.002	0.0196	–
